Drawing on PubChem BioAssay AID1926 (The Scripps Research Institute Molecular Screening Center, 2009), this text covers IC50 for 63 molecules.

Active and inactive are the calls of the source.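 The calls were made as follows: active = IC50 half-maximal inhibitory concentration at or below 10 µM; inactive = IC50 above 10 µM.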 Where only a bound is given, the exact number is not on record here.

This test deals with VIM-2 metallo-beta-lactamase (Pseudomonas aeruginosa) (UniProt Q932Y6). Put plainly: VIM-2 CCF2 hydrolysis inhibition, assay artifact filter – biochemical, FRET readout, CCF2 substrate, artefact control for selective VIM-2 inhibitor project, dose response (AID 1926). The following applies: purified VIM-2, CCF2 FRET substrate hydrolysis.
Take `Fc1ccccc1-c1n[nH]c(=S)n1Cc1ccccc1`: the IC50 was 4.14 µM. `Cc1cccc(C(=O)Nc2nnc(SCC(=O)NCc3ccco3)s2)c1`: the IC50 result was “inactive”. With `Cc1c(C)c2c(OCC(=O)N[C@@H](C)C(=O)O)cc3c(c2oc1=O)CCC(C)(C)O3`, the 50% inhibitory concentration (IC50) is 1.54 µM. The figure for `C=CCn1c(C2CC2)n[nH]c1=S` is 8.36 µM.

On to `C=C(C)Cn1c(-c2cccs2)n[nH]c1=S`, for which the IC50 is 1.39 µM. Under `CCCc1cc(=O)oc2c3c(cc(OCC(=O)N[C@@H](C)C(=O)O)c12)OC(C)(C)CC3` stands 6.97 µM; under `Cn1ccnc1SCC(=O)Nc1ccc2nc(SCC(=O)NC3CC3)sc2c1`, 9 µM; under `Cc1cccc(C2c3[nH]c4ccccc4c3CCN2C(=O)c2cc(CC(C)C)[nH]c(=O)n2)n1` (stereo not drawn), 2.74 µM. Take `O=c1[nH]c2c(s1)C(c1cccnc1)C1C3CCC(C3)C1S2` (stereo not drawn): the IC50 was 0.0339 µM.

As to `O=C(CSc1nnc(NC(=O)c2ccccc2)s1)NCc1ccco1`, the 50% inhibitory concentration (IC50) is 4.63 µM. For `Cc1c(C)c2c(OCC(=O)N3CCC[C@H]3C(=O)O)cc3c(c2oc1=O)CCC(C)(C)O3`, the IC50 is 0.525 µM. For `O=P(O)(O)c1ccccc1OCCCCCOc1ccccc1P(=O)(O)O`, the IC50 is 0.862 µM. Under `O=C(O)c1ccccc1Sc1ncnc2sc3c(c12)CCC3` stands 3.91 µM; under `S=c1[nH]nc(Cn2c(-c3ccccn3)nc3ccccc32)n1-c1ccc2c(c1)OCCO2`, 4.03 µM. Under `CCCC(=O)Nc1nnc(SCC(=O)NCc2cccs2)s1` stands 4.68 µM; under `CCCCn1c(-c2ccoc2C)n[nH]c1=S`, 4.25 µM.

`O=c1c2ccccc2cnn1Cc1n[nH]c(=S)n1C1CC2CCC1C2` (stereo not drawn): the IC50 was 9.66 µM. Under `C=C(c1cccc2ccccc12)P(=O)(O)O` stands 2.17 µM.

For the molecule `COc1cccc(-n2c(CNC(=O)OC(C)(C)C)n[nH]c2=S)c1`, the IC50 was 7.83 µM.

On to `CC1CCCC(C)N1C(=O)CSc1nnc(NC(=O)c2cccs2)s1` (stereo not drawn), for which the IC50 is 3.92 µM.

In the case of `O=c1[nH]c(SCc2n[nH]c(=S)n2-c2ccccc2)nc2sc3c(c12)CCC3`, the IC50 is 4.2 µM.

Consider `CC(C)(C)c1ccc(COc2ccsc2C(=O)O)cc1`, for which the IC50 is 5.71 µM. Consider `O=C(CSc1nnc(NC(=O)c2ccccc2[N+](=O)[O-])s1)NCc1ccco1`, for which the IC50 is 2.62 µM.

As to `CCCCc1cc(=O)oc2c3c(cc(OCC(=O)N4CCC[C@H]4C(=O)O)c12)OC(C)(C)CC3`, the IC50 is 8.93 µM. In the case of `Cc1ccc(-c2c(C(=O)O)c(C(=O)O)c3n2CSC3)cc1`, the IC50 is 2.95 µM. For the molecule `S=c1[nH]nc(-c2ccc3ccccc3n2)n1-c1ccc2c(c1)OCCO2`, the IC50 is 7.92 µM. In the case of `COCC(=O)Nc1nnc(SCC(=O)NCc2cccs2)s1`, the IC50 is 3.62 µM. The figure for `Cc1cc(OCc2cc(C(=O)O)oc2C)c2c3c(c(=O)oc2c1)CCCC3` is 0.582 µM; for `Cc1ccccc1C(=O)Nc1nnc(SCC(=O)NCc2ccco2)s1` it is 1.12 µM.

For `Cc1nn(CCc2n[nH]c(=S)n2-c2cccc(Cl)c2)c(C)c1[N+](=O)[O-]`, the IC50 is 4.31 µM.

In the case of `CC1CCCCC1n1c(-c2cccnc2)n[nH]c1=S` (stereo not drawn), the IC50 was 4.05 µM.

On to `COc1ccc(-c2n[nH]c(=S)n2-c2ccc3c(c2)OCCO3)cc1OC`, for which the IC50 is 2.62 µM. As to `CSc1nc(SCC(=O)O)c2c3c(sc2n1)COC(C)(C)C3`, the IC50 was 5.35 µM. The figure for `NC(=O)SCC(=O)Nc1ccccc1C(=O)O` is 5.27 µM. The figure for `Cc1cc(=O)oc2c3c(cc(OCC(=O)N4CCC[C@H]4C(=O)O)c12)OC(C)(C)CC3` is 4.93 µM; for `S=c1[nH]nc(-c2ccccc2)n1Cc1ccccc1` it is 8.3 µM; for `O=C(CCN1C(=O)/C(=C/c2ccccc2F)SC1=S)NCCCn1ccnc1` it is 4.49 µM. As to `Cc1cc(OCC(=O)N2CCC[C@@H]2C(=O)O)c2c(C)c(C)c(=O)oc2c1`, the IC50 is 5.31 µM. Under `O=C(CSc1nnc(NC(=O)c2ccccc2F)s1)NCc1ccc(F)cc1` stands 3.65 µM.

For `O=[N+]([O-])c1ccc(-c2ccccc2)c([As](=O)(O)O)c1`, the concentration for half-maximal inhibition (IC50) was 0.245 µM. The figure for `S=c1[nH]nc(-c2cccs2)n1Cc1ccccc1` is 0.889 µM. The figure for `CC(C)(C)CC(=O)Nc1nnc(SCC(=O)NCc2cccs2)s1` is 6.64 µM; for `O=C(O)c1ccccc1C(=O)c1cccc2ccccc12` it is 3.82 µM; for `Cc1n[nH]c(C)c1CCCCOc1ccc([N+](=O)[O-])cc1` it is 5.26 µM. Under `O=C1Nc2cc(C(=O)N3CCC(N4CCCCC4)CC3)ccc2S/C1=C\c1ccccc1` stands 4.51 µM; under `Cc1cc(C)n(-c2nc(SCC(=O)O)c3c4c(sc3n2)COC(C)(C)C4)n1`, 9.07 µM; under `Cc1ccc(-c2n[nH]c(=S)n2-c2ccccc2)cc1`, “inactive”. For the molecule `S=c1[nH]nc(C2CC2)n1Cc1ccco1`, the half-inhibitory concentration (IC50) was 3.76 µM. For the molecule `Cc1cc(=O)oc2c3c(cc(OCC(=O)N[C@@H](Cc4ccccc4)C(=O)O)c12)OC(C)(C)CC3`, the IC50 is 7.51 µM. The figure for `S=c1[nH]nc(-c2ccco2)n1-c1cccc2ccccc12` is 3.97 µM. Regarding `CCCCn1c(-c2nn(C)c(C)c2Cl)n[nH]c1=S`, the IC50 is 1.99 µM. Under `Cc1c(OCC(=O)N2CCC[C@@H]2C(=O)O)ccc2c3c(c(=O)oc12)CCC3` stands 5.43 µM; under `CCCCn1c(-c2nn(C)cc2Cl)n[nH]c1=S`, 1.62 µM; under `CCn1c(-c2nn(-c3ccccc3)ccc2=O)n[nH]c1=S`, 8.57 µM. The figure for `O=C(CSc1nnc(NC(=O)C2CCCCC2)s1)NCc1ccco1` is 2.23 µM. The figure for `COc1ccc(-c2cc(C(F)(F)F)nc(N3CCN(C)CC3)n2)cc1` is > 59.6 µM (inactive); for `CC(C)Cn1c(-c2ccco2)n[nH]c1=S` it is 4.37 µM.

For `CCc1cc(=O)oc2c(C)c(OCC(=O)N3CCC[C@@H]3C(=O)O)ccc12`, the IC50 is 8.96 µM. Under `CCOC(=O)N=S(N)(=O)c1ccccc1` (stereo not drawn) stands 4.85 µM; under `COc1ccc2[nH]c(C(=O)O)c(CCN3C(=O)c4ccc(C(=O)O)cc4C3=O)c2c1`, 0.433 µM; under `O=C(O)c1c(C(=O)O)c(-c2ccc(Br)cc2)n2c1CSC2`, 1.51 µM.

Take `O=C(O)c1[nH]c2ccc(Br)cc2c1CCN1C(=O)c2cccc([N+](=O)[O-])c2C1=O`: the half-inhibitory concentration (IC50) was 0.716 µM. The figure for `S=c1[nH]nc(-c2ccccc2)n1CC1CCCO1` (stereo not drawn) is 4.15 µM.

A word on the IC50: it is the concentration that inhibits the measured activity by half.
